MIC data for 1 compound are collected here from ChEMBL document CHEMBL1157532, “Halichonadin F and the Cu(I) complex of halichonadin C from the sponge Halichondria sp” (2008).

Molecules are shown by their SMILES. Values after ≈ are worked out from the molar mass of the structure shown.

Format in all cases: functional
The test system of assay [1] is Trichophyton mentagrophytes. Nature of the assay: Antimicrobial activity against Trichophyton mentagrophytes.
For a further assay, the system named is Micrococcus luteus. Nature of the assay: Antimicrobial activity against Micrococcus luteus.
In another assay the test system is Cryptococcus neoformans. Nature of the assay: Antimicrobial activity against Cryptococcus neoformans.

As to `C[C@@H]1CC[C@@H]2[C@@H]1[C@H]1[C@@H](CC[C@]2(C)N)C1(C)C` [HALICHONADIN F], the figures for the MIC (in assay [1]; against Micrococcus luteus; against Cryptococcus neoformans) were 16 µg/mL (≈ 72.3 µM), 4 µg/mL (≈ 18.1 µM) and 16 µg/mL (≈ 72.3 µM), respectively.
